Read-outs that look alike come from different tables or passages of the source.
Key:
Assay type in all cases: in vivo
[1] = tested on: barnyardgrass (Echinochloa crus-galli); experiment: Test A pre-/postemergence greenhouse herbicide test; details: Echinochloa crus-galli, 240 h, 0 to 100 scale (0 no effect, 100 complete control), approx. 10 d, read-out: Plant response rating, Barnyardgrass; for pest or weed control at 125 g/ha: 125 g ai/ha; for pest or weed control at 500 g/ha: 500 g ai/ha
Method in brief: (§1)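 Injury was scored visually on a 0–100 scale (100 = complete control) about 10 d after spraying, relative to untreated plants. Compounds were formulated in solvent plus surfactant and applied as soil spray preemergence or to 2–10 cm, one- to two-leaf seedlings postemergence.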

corn (Zea mays) = experiment: as above; details: Zea mays, 240 h, 0 to 100 scale (0 no effect, 100 complete control), approx. 10 d; for Corn plant response rating (crop injury, 0 = no effect, 100 = complete kill) at 125 g/ha: 125 g ai/ha; for Corn plant response rating (crop injury, 0 = no effect, 100 = complete kill) at 500 g/ha: 500 g ai/ha
Method in brief: as §1

[2] = tested on: crabgrass, Large (large crabgrass, Digitaria sanguinalis); experiment: as above; details: Digitaria sanguinalis, 240 h, 0 to 100 scale (0 no effect, 100 complete control), approx. 10 d, read-out: Plant response rating, Crabgrass, Large; for pest or weed control at 125 g/ha: 125 g ai/ha; for pest or weed control at 500 g/ha: 500 g ai/ha
Method in brief: as §1

[3] = tested on: foxtail, giant (giant foxtail, Setaria faberii); experiment: as above; details: Setaria faberi, 240 h, 0 to 100 scale (0 no effect, 100 complete control), approx. 10 d, read-out: Plant response rating, Foxtail, Giant; for pest or weed control at 125 g/ha: 125 g ai/ha; for pest or weed control at 500 g/ha: 500 g ai/ha
Method in brief: as §1

[4] = tested on: pigweed (Amaranthus retroflexus); experiment: as above; details: Amaranthus retroflexus, 240 h, 0 to 100 scale (0 no effect, 100 complete control), approx. 10 d, read-out: Plant response rating, Pigweed; for pest or weed control at 125 g/ha: 125 g ai/ha; for pest or weed control at 500 g/ha: 500 g ai/ha
Method in brief: as §1

[5] = tested on: velvetleaf (Abutilon theophrasti); experiment: as above; details: Abutilon theophrasti, 240 h, 0 to 100 scale (0 no effect, 100 complete control), approx. 10 d, read-out: Plant response rating, Velvetleaf; for pest or weed control at 125 g/ha: 125 g ai/ha; for pest or weed control at 500 g/ha: 500 g ai/ha
Method in brief: as §1

[6] = tested on: wheat (Triticum aestivum); experiment: as above; details: Triticum aestivum, 240 h, 0 to 100 scale (0 no effect, 100 complete control), approx. 10 d, read-out: Plant response rating, Wheat; for plant injury at 125 g/ha: 125 g ai/ha; for plant injury at 500 g/ha: 500 g ai/ha
Method in brief: as §1

[7] = tested on: barnyardgrass (Echinochloa crus-galli); experiment: Test C pre-/postemergence greenhouse herbicide test; details: Barnyardgrass
Method in brief: (§2)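 Seeds in loam–sand blend sprayed preemergence, and 1- to 4-leaf plants (2–18 cm) sprayed postemergence, with compounds in non-phytotoxic solvent plus surfactant. Visual rating versus controls after 13–15 d in greenhouse, 0 (no effect) to 100 (complete control).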

[8] = tested on: oat, wild (wild oat, Avena fatua); experiment: as above; details: Postemergence
Method in brief: as §2

Compound | pest or weed control at 125 g/ha ([1]; post-emergence, Postemergence) | pest or weed control at 500 g/ha ([1]; post-emergence, Postemergence) | pest or weed control at 125 g/ha ([1]; pre-emergence, Preemergence) | pest or weed control at 500 g/ha ([1]; pre-emergence, Preemergence) | Corn plant response rating (crop injury, 0 = no effect, 100 = complete kill) at 125 g/ha (corn (Zea mays); post-emergence, Postemergence) | Corn plant response rating (crop injury, 0 = no effect, 100 = complete kill) at 500 g/ha (corn (Zea mays); post-emergence, Postemergence) | Corn plant response rating (crop injury, 0 = no effect, 100 = complete kill) at 125 g/ha (corn (Zea mays); pre-emergence, Preemergence) | Corn plant response rating (crop injury, 0 = no effect, 100 = complete kill) at 500 g/ha (corn (Zea mays); pre-emergence, Preemergence) | pest or weed control at 125 g/ha ([2]; post-emergence, Postemergence) | pest or weed control at 500 g/ha ([2]; post-emergence, Postemergence) | pest or weed control at 125 g/ha ([2]; pre-emergence, Preemergence) | pest or weed control at 500 g/ha ([2]; pre-emergence, Preemergence) | pest or weed control at 125 g/ha ([3]; post-emergence, Postemergence) | pest or weed control at 500 g/ha ([3]; post-emergence, Postemergence) | pest or weed control at 125 g/ha ([3]; pre-emergence, Preemergence) | pest or weed control at 500 g/ha ([3]; pre-emergence, Preemergence) | pest or weed control at 125 g/ha ([4]; post-emergence, Postemergence) | pest or weed control at 500 g/ha ([4]; post-emergence, Postemergence) | pest or weed control at 125 g/ha ([4]; pre-emergence, Preemergence) | pest or weed control at 500 g/ha ([4]; pre-emergence, Preemergence) | other results
Cc1cc(=O)n(-c2ccc(F)cc2)nc1Cc1ccnc(C(F)(F)F)c1 [Compound 1, 2-(4-fluorophenyl)-5-methyl-6-[[2-(trifluoromethyl)-4-pyridinyl]methyl]-3(2H)-pyridazinone] | 100% | 100% | 100% | 100% | 90% | 90% | 0% | 90% | 90% | 100% | 100% | 100% | 90% | 100% | 100% | 100% | 100% | 100% | 100% | 100% | pest or weed control at 125 g/ha ([5]; post-emergence, Postemergence): 40%; pest or weed control at 500 g/ha ([5]; post-emergence, Postemergence): 100%; pest or weed control at 125 g/ha ([5]; pre-emergence, Preemergence): 0%; pest or weed control at 500 g/ha ([5]; pre-emergence, Preemergence): 90%; plant injury at 125 g/ha ([6]; post-emergence, Postemergence): 60%; plant injury at 500 g/ha ([6]; post-emergence, Postemergence): 90%; plant injury at 125 g/ha ([6]; pre-emergence, Preemergence): 0%; plant injury at 500 g/ha ([6]; pre-emergence, Preemergence): 90%; Plant response rating ([7]; Postemergence, 31 g ai/ha): 10; Plant response rating ([7]; Postemergence, 62 g ai/ha): 10; Plant response rating ([7]; Postemergence, 125 g ai/ha): 10; Plant response rating ([7]; Postemergence, 250 g ai/ha): 10; Plant response rating ([7]; Preemergence, 31 g ai/ha): 35; Plant response rating ([7]; Preemergence, 62 g ai/ha): 85; Plant response rating ([7]; Preemergence, 125 g ai/ha): 100; Plant response rating ([7]; Preemergence, 250 g ai/ha): 100; Plant response rating ([8]; 31 g ai/ha): 5; Plant response rating ([8]; 62 g ai/ha): 5; Plant response rating ([8]; 125 g ai/ha): 5; Plant response rating ([8]; 250 g ai/ha): 5
Cc1cc(=O)n(-c2ccc(C(F)(F)F)cc2)nc1Cc1ccnc(C(F)(F)F)c1 [Compound 2, 5-methyl-2-[4-(trifluoromethyl)phenyl]-6-[[2-(trifluoromethyl)-4-pyridinyl]methyl]-3(2H)-pyridazinone] | 80% | 90% | 80% | 100% | 70% | 90% | 30% | 50% | 80% | 100% | 100% | 100% | 80% | 100% | 100% | 100% | 90% | 100% | 100% | 100% | pest or weed control at 125 g/ha ([5]; post-emergence, Postemergence): 50%; pest or weed control at 500 g/ha ([5]; post-emergence, Postemergence): 100%; pest or weed control at 125 g/ha ([5]; pre-emergence, Preemergence): 20%; pest or weed control at 500 g/ha ([5]; pre-emergence, Preemergence): 50%; plant injury at 125 g/ha ([6]; post-emergence, Postemergence): 40%; plant injury at 500 g/ha ([6]; post-emergence, Postemergence): 80%; plant injury at 125 g/ha ([6]; pre-emergence, Preemergence): 0%; plant injury at 500 g/ha ([6]; pre-emergence, Preemergence): 40%; Plant response rating ([7]; Postemergence, 31 g ai/ha): 5; Plant response rating ([7]; Postemergence, 62 g ai/ha): 10; Plant response rating ([7]; Postemergence, 125 g ai/ha): 10; Plant response rating ([7]; Postemergence, 250 g ai/ha): 25; Plant response rating ([7]; Preemergence, 31 g ai/ha): 65; Plant response rating ([7]; Preemergence, 62 g ai/ha): 70; Plant response rating ([7]; Preemergence, 125 g ai/ha): 90; Plant response rating ([7]; Preemergence, 250 g ai/ha): 98; Plant response rating ([8]; 31 g ai/ha): 5; Plant response rating ([8]; 62 g ai/ha): 5; Plant response rating ([8]; 125 g ai/ha): 5; Plant response rating ([8]; 250 g ai/ha): 5

Source: US10202361B2, “Pyridazinones as herbicides” (E I DU PONT DE NEMOURS AND COMPANY, priority 2014, dated 2019)
